Measurements: ChEMBL document CHEMBL3425492, “Dual high-resolution α-glucosidase and radical scavenging profiling combined with HPLC-HRMS-SPE-NMR for identification of minor and major constituents directly from the crude extract of Pueraria lobata” (J Nat Prod, 2015)
The source made the active and inactive calls. The calls are words filed in the database; no cut-off is given here.

Tests used:
[1] = Antioxidant activity of the compound assessed as inhibition of ABTS radicals after 20 mins by spectrophotometric analysis; format: physicochemical
Saccharomyces cerevisiae = assay: Inhibition of Saccharomyces cerevisiae alpha-glucosidase type 1 assessed as 4-nitrophenol cleavage product by high-resolution biochromatogram

SMILES	inhibition (INH) [1]	Activity (Saccharomyces cerevisiae)
COc1cc(-c2coc3cc(O[C@@H]4O[C@H](CO)[C@@H](O)[C@H](O)[C@H]4O)ccc3c2=O)ccc1O	Not Active	
O=C(O)CC(=O)OC[C@H]1O[C@@H](Oc2ccc3c(=O)c(-c4ccc(O)cc4)coc3c2)[C@H](O)[C@@H](O)[C@@H]1O	Not Active	Active
O=C(O)CC(=O)OC[C@H]1O[C@@H](Oc2cc(O)c3c(=O)c(-c4ccc(O)cc4)coc3c2)[C@H](O)[C@@H](O)[C@@H]1O	Not Active	Active
O=Cc1c(-c2ccc(O)cc2O)oc2cc(O)ccc12	Active	
O=c1c(-c2ccc(O)cc2)coc2cc(O)ccc12 [DAIDZEIN]	Active	Active
O=c1c(-c2ccc(O)cc2)coc2c([C@@H]3O[C@H](CO)[C@@H](O)[C@H](O)[C@H]3O)c(O)ccc12 [PUERARIN]	Not Active	Active
O=c1c(-c2ccc(O)cc2)coc2cc(O[C@@H]3O[C@H](CO)[C@@H](O)[C@H](O)[C@H]3O)cc(O)c12 [GENISTIN]	Not Active	Active
O=c1c(-c2ccc(O)cc2)coc2cc(O)cc(O)c12 [GENISTEIN]	Not Active	
COc1ccc(-c2coc3cc(O[C@@H]4O[C@H](COC(=O)CC(=O)O)[C@@H](O)[C@H](O)[C@H]4O)ccc3c2=O)cc1	Not Active	
O=c1c(-c2ccc(O[C@@H]3O[C@H](CO)[C@@H](O)[C@H](O)[C@H]3O)cc2)coc2cc(O)ccc12	Not Active	
COc1ccc(-c2coc3cc(O[C@@H]4O[C@H](COC(=O)CC(=O)O)[C@@H](O)[C@H](O)[C@H]4O)cc(O)c3c2=O)cc1	Not Active	
O=c1c(-c2ccc(O)cc2)coc2cc(O[C@@H]3O[C@H](CO)[C@@H](O)[C@H](O)[C@H]3O)ccc12 [DAIDZIN]	Not Active	Active
COc1cc(-c2coc3cc(O[C@@H]4O[C@H](COC(=O)CC(=O)O)[C@@H](O)[C@H](O)[C@H]4O)ccc3c2=O)ccc1O	Not Active	
COc1ccc(C2=CC(=O)O[C@H]2Cc2ccc(O)cc2)c(O[C@@H]2O[C@H](CO)[C@@H](O)[C@H](O)[C@H]2O)c1	Not Active	Active
COc1ccc(-c2coc3cc(O[C@@H]4O[C@H](CO)[C@@H](O)[C@H](O)[C@H]4O)ccc3c2=O)cc1 [ONONIN]	Not Active	
COc1ccc(-c2coc3cc(O[C@@H]4O[C@H](CO)[C@@H](O)[C@H](O)[C@H]4O)cc(O)c3c2=O)cc1	Not Active	
COc1ccc(-c2coc3cc(O)ccc3c2=O)cc1 [FORMONONETIN]	Not Active	
